According to US7341730B1, “Inhibitors of angiogenesis and tumor growth” (University of Southern California, priority 1998, dated 2008):
No end group written: not given here.

B1: Saposin D: sphingolipid-binding glycoprotein derived from Prosaposin, recombinant (protein, UniProt P07602 405-486, looked up)
Saposin-D: DGGFCEVCKKLVGYLDRNLEKNSTKQEILAALEKGCSFLPDPYQKQCDQFVAEYEPVLIEILVEVMDPSFVCLKIGACPSAH
modifications: Saposin-D
B2: Saposin A: sphingolipid-binding glycoprotein derived from Prosaposin, recombinant (protein, UniProt P07602 60-142, looked up)
Saposin-A: SLPCDICKDVVTAAGDMLKDNATEEEILVYLEKTCDWLPKPNMSASCKEIVDSYLPVILDIIKGEMSRPGEVCSALNLCESLQ
modifications: Saposin-A
B3: Saposin C: sphingolipid-binding glycoprotein derived from Prosaposin, recombinant (protein, UniProt P07602 311-390, looked up)
Saposin-C: SDVYCEVCEFLVKEVTKLIDNNKTEKEILDAFDKMCSKLPKSLSEECQEVVDTYGSSILSILLEEVSPELVCSMLHLCSG
modifications: Saposin-C
B4: Prosaposin: 70 kD glycoprotein, precursor of Saposin A, B, C and D; naturally occurring full-length (protein, listed as Homo sapiens)
chain: MYALFLLASLLGAALAGPVLGLKECTRGSAVWCQNVKTASDCGAVKHCLQTVWNKPTVKSLPCDICKDVVTAAGDMLKDNATEEEILVYLEKTCDWLPKPNMSASCKEIVDSYLPVILDIIKGEMSRPGEVCSALNLCESLQKHLAELNHQKQLESNKIPELDMTEVVAPFMANIPLLLYPQDGPRSKPQPKDNGDVCQDCIQMVTDIQTAVRTNSTFVQALVEHVKEECDRLGPGMADICKNYISQYSEIAIQMMMHMQPKEICALVGFCDEVKEMPMQTLVPAKVASKNVIPALELVEPIKKHEVPAKSDVYCEVCEFLVKEVTKLIDNNKTEKEILDAFDKMCSKLPKSLSEECQEVVDTYGSSILSILLEEVSPELVCSMLHLCSGTRLPALTVHVTQPKDGGFCEVCKKLVGYLDRNLEKNSTKQEILAALEKGCSFLPDPYQKQCDQFVAEYEPVLIEILVEVMDPSFVCLKIGACPSAHKPLLGTEKCIWGPSYWCQNTETAAQCNAVEHCKRHVWN
modifications: prosaposin
notes: 70 kD glycoprotein, precursor of Saposin A, B, C and D; naturally occurring full-length

How the values were obtained:
Type in all cases: cell-based
[1] = test system: KS Y-1 cells; experiment: KS Y-1 cell proliferation assay (MTT); conditions: concentration not given
Protocol: (§1) To determine if Saposin B polypeptides had anti-angiogenic activity, a series of overlapping polypeptides were synthesized and tested in the KS Y-1 cell proliferation assay. The overlapping polypeptides are SEQ ID NOs:13 though 43. Cell Proliferation assays in either KS cells or fibroblast. Cells were plated in 48 well plates at equal numbers in appropriate culture medium. Cells were treated with the test compounds at various concentrations on day one, and on day 3. MTT was done on day 5. KS cells were used to represent the activated endothelial cells, while fibroblast cells represent the control cells. The results are remarkable for the lack of toxicity to the fibroblast relative to the activated endothelial cells/KS cells.

[2] = test system: fibroblast cells (T1); experiment: Fibroblast proliferation assay (MTT), control cells; conditions: for Cell Proliferation Activity (% of control), T1: concentration not printed
Protocol: as §1

[3] = test system: KS cell lines; experiment: KS cell migration in transwell plates; conditions: KS cell lines
Protocol: The assays were done in double chamber wells separated by fibrinogen-coated membrane. Chemotaxis was induced by bFGF (25 ng/mL) in the lower chamber. Endothelial cells or KS cells (5×10^4/mL) were placed in the upper chamber in the presence and absence of test polypeptides. Taxol at 10 ng/mL was used as a known inhibitor of migration. Cell migration across the membrane was quantitated after an overnight incubation.
Angiogenesis is mediated by complex biochemical processes including degradation of the basement membrane under existing blood vessel endothelial cells, followed by proliferation and migration of endothelial cells, followed by formation of capillary loops, and recruitment of vascular smooth muscle cells to encase the newly formed vessels and provide stability. KS and endothelial cell migration in the presence of Saposin B was studied in transwell culture plates with 8 μm pore membranes (Costar, Cambridge, Mass.).
Briefly, wells were coated with fibronectin (25 μg/mL) overnight, and endothelial cells or KS cells were plated in the upper chamber with 100 μL of DMEM/0.4% FCS. 500 μL of DMEM/0.4% FCS was added to the lower chamber and incubated at 37° C. for one hour. The test polypeptides, at various concentrations, were added to the upper chamber, and chemotactic agents (VEGF or bFGF at 20 ng/mL) were added to the lower cell-culture chambers. The plates were incubated for 5 hr at 37° C. and the cells crossing the fibronectin-coated membrane were counted after wiping the cells off the membrane in the upper chamber with a cotton swab.
The cells that traversed the membrane were fixed with Diff-Quik stain according to the manufacturer's instruction (Dade Diagnostics Inc., Aguada, PR). The cells were counted under a microscope at 320× in four randomly selected fields. The experiments were done in duplicate and repeated at least three times.

[4] = test system: endothelial cells (HUVEC); experiment: Growth inhibition of endothelial cells
Protocol: (§2) Typically, in an anti-proliferation assay, the suppression of growth in the presence of the compound to be tested is measured. For example, the above cells are incubated with the polypeptides of this invention for a suitable time and the decrease in the growth rate relative to a negative control, i.e., cells of the same cell line which have been incubated in media alone, is measured. Growth of the cell culture can be measured by any method acceptable to one of skill, including but not limited to, 3H-thymidine uptake, cell counting and tetrazolium dye uptake.
(§3) By SDS-PAGE, the bacterial product was smaller than the eukaryotic protein. Because prokaryotically expressed proteins are not glycosylated, the difference in molecular weights probably represents the presence of carbohydrate in the eukaryotic protein. Recombinant proteins were then tested in KS, endothelial and control cell lines. Activity was found only in KS cell lines and endothelial cells.

[5] = test system: KS cell lines; experiment: Growth inhibition of KS cell lines by recombinant proteins; conditions: for growth inhibition / activity against KS cell lines: recombinant or naturally occurring protein
Protocol: as §2, §3

[6] = up to the highest concentration tested (50 μg/mL)

Row | Molecule | Cell Proliferation Activity (% of control), KS Y-1 ([1]; KS Y-1, first value column) | Cell Proliferation Activity (% of control), KS Y-1 ([1]; KS Y-1) | Cell Proliferation Activity (% of control), T1 ([2]; T1, first value column) | Cell Proliferation Activity (% of control), T1 ([2]; T1, second value column) | other results
1 | GDVSQDSIQMV [SEQ ID NO:20] | 93 % of control | 84 % of control | – | – | Fibroblast Proliferation, % of Control ([2]; 10 μg/mL): 95.7 % of Control; Fibroblast Proliferation, % of Control ([2]; 50 μg/mL): 95.7 % of Control
2 | GDVCQDCIQMV [SEQ ID NO:19] | 28 % of control | 8 % of control | – | – | Fibroblast Proliferation, % of Control ([2]; 1 μg/mL): 91.3 % of Control; Fibroblast Proliferation, % of Control ([2]; 10 μg/mL): 91.3 % of Control; % Cells Migrating Through Membrane (of Control) ([3]; 1 μg/mL): 78.23%; % Cells Migrating Through Membrane (of Control) ([3]; 10 μg/mL): 40.32%; % Cells Migrating Through Membrane (of Control) ([3]; 50 μg/mL): 20.98%
3 | DVCQDCIQ [SEQ ID NO:25] | 72 % of control | 39 % of control | 98 % of control | 89 % of control | –
4 | DVCQDC [SEQ ID NO:27] | 60 % of control | 22 % of control | 88 % of control | 75 % of control | –
5 | VCQDCIQMV [SEQ ID NO:29] | 65 % of control | 33 % of control | 95 % of control | 86 % of control | –
6 | CQDCIQMV [SEQ ID NO:30] | 77 % of control | 35 % of control | 92 % of control | 84 % of control | –
7 | DVCQDCI [SEQ ID NO:26] | 72 % of control | 40 % of control | 96 % of control | 81 % of control | –
8 | QDCIQMV [SEQ ID NO:31, QDCIQMV] | 74 % of control | – | 87 % of control | 80 % of control | –
9 | DVCQDCIQM [SEQ ID NO:24] | 68 % of control | 46 % of control | 96 % of control | 84 % of control | –
10 | DCIQMV [SEQ ID NO:23] | 68 % of control | 51 % of control | – | – | –
11 | GDVCQ [SEQ ID NO:22] | 59 % of control | 28 % of control | – | – | Fibroblast Proliferation, % of Control ([2]; 1 μg/mL): 95.7 % of Control; Fibroblast Proliferation, % of Control ([2]; 10 μg/mL): 95.7 % of Control; Fibroblast Proliferation, % of Control ([2]; 50 μg/mL): 87.0 % of Control
12 | DVCQDCIQMV [SEQ ID NO:21] | 29 % of control | – | – | – | Fibroblast Proliferation, % of Control ([2]; 1 μg/mL): 100.0 % of Control; Fibroblast Proliferation, % of Control ([2]; 50 μg/mL): 87.0 % of Control; growth inhibition / activity against endothelial cells [4]: Only endothelial cells show dose dependent growth inhibition
13 | B1 | – | – | – | – | growth inhibition / activity against KS cell lines [5]: no activity; growth inhibition / activity against endothelial cells [4]: no activity
14 | B2 | – | – | – | – | growth inhibition / activity against KS cell lines [5]: no activity; growth inhibition / activity against endothelial cells [4]: no activity
15 | B3 | – | – | – | – | activity against KS cell lines [5, 6]: no activity; activity against endothelial cells [4, 6]: no activity
16 | B4 | – | – | – | – | growth inhibition / activity against KS cell lines [5]: no activity; growth inhibition / activity against endothelial cells [4]: no activity
